Experimental findings from patent US7947690B2, “Pyrimidine derivative condensed with a non-aromatic ring” (Astellas Pharma Inc., priority 2004, dated 2011) are described below.

Test [1] relates to MIN6B1 cell. Nature of the test: Assay for promoting activity on insulin secretion. It is filed as cell-based, mouse. Particulars: 10 μM test compound in KRB-HEPES with 16.8 mM glucose, 37° C., relative value, insulin concentration for only DMSO = 100%; for activity at 10 µM: Mus musculus, 22 min, read-out: Promotion activity on insulin secretion, %; for Promotion activity on insulin secretion, %: 22 minutes. As for the experimental part: (1) Assay for Promoting Activity on Insulin Secretion
In this assay, promoting activities on insulin secretion of the test compounds were studied using MIN6B1 cell, which was a strain of mouse pancreatic β-cells, and glibenclamide, which was a commercially available insulin secretion secretagogue, as a reference compound. The assay procedure is given below.
MIN6B1 cells were seeded on a 48-well plate at a concentration of 1×10^5 cells/well (0.25 ml) (The medium was prepared by adding FCS (fetal calf serum) to DMEM (Dulbecco's Modified Eagle Medium) containing 25 mM glucose such that the FCS concentration became 10%). After two days, the medium was suctioned by an aspirator, each well was Washed four times with 0.2 ml of KRB-HEPES buffer (Krebs-Ringer-bicarbonate-N-2-hydroxylethylpiperazine-N′-2-ethanesulfonic acid; 130 mM NaCl, 4.7 mM KCl, 1.2 mM KH2PO4, 1.2 mM MgCl2.6H2O, 0.25 mM CaCl2.2H2O, 2.5 mM NaHCO3, 0.5% BSA, and 10 mM N-2-hydroxyethylpiperazine-N′-2-ethanesulfonic acid (pH 7.4)) containing 2.8 mM glucose warmed to 37° C., 0.2 ml of said buffer was again added, and the cells were incubated at 37° C. for 30 to 60 minutes. After the buffer was suctioned by an aspirator, 0.25 ml of a solution containing 10 μM of each test compound in KRB-HEPES containing 16.8 mM glucose was added to each well, and the cells were incubated at 37° C. for 22 minutes. The samples were pipetted and diluted by 25 to 51 times, and the insulin concentrations were analyzed using an insulin assay kit (Rat Insulin [^125I] Biotrak Assay System with Magnetic Separation; Amersham Bioscience K.K.). The test compounds were dissolved in 100% DMSO, and were added at the final concentration of 0.1%. The activity was expressed as a relative value, provided that insulin concentration for only DMSO was 100%.

The subject of test [2] is normal mice. The experiment in a line: Oral glucose tolerance test on normal mouse. The conditions noted are these: ICR mice, nateglinide 10 mg/kg orally 30 minutes before glucose loading; at 30 minutes after glucose loading, relative to control group. It is filed as in vivo. As for the experimental part: (2) Oral Glucose Tolerance Test on Normal Mouse
In this assay, preventive activities of test compounds against hyperglycemia following glucose loading were examined using normal mice and nateglinide, a commercially available oral anti-hyperglycemic agent, as a reference compound. The assay procedure is given below.
ICR mice (male, six weeks old) that had been preliminary bred for one week were fasted for 18 to 20 hours to use as test animals. Each test compound was dissolved in 0.5% methylcellulose solution and orally administered at 3 mg/kg (10 mg/kg for nateglinide) before glucose loading. Timing to administer the test compound was selected to be optimal for each test compound, which was 10 minutes before glucose loading for the compounds of the present invention or 30 minutes before glucose loading for nateglinide, which was a reference compound. The hypoglycemic rate (%) at 30 minutes after glucose loading was measured relative to the control group.

Where a name gives a salt, the structure may show the parent alone.

Regarding `C[C@@H]1CCCN(c2nc(-c3cc(F)c(Cl)cc3F)nc3c2CS(=O)(=O)C3)C1` [Example 1, (R)-2-(4-chloro-2,5-difluorophenyl)-4-(3-methylpiperidin-1-yl)-5,7-dihydrothieno[3,4-d]pyrimidine 6,6-dioxide hydrochloride], the activity at 10 µM in test [1] was 355%.

`NC(=O)CCN1CCN(c2nc(-c3cc(F)c(Cl)cc3F)nc3c2CS(=O)(=O)C3)CC1` [Example 269, 3-{4-[2-(4-chloro-2,5-difluorophenyl)-6,6-dioxido-5,7-dihydrothieno[3,4-d]pyrimidin-4-yl]piperazin-1-yl}propanamide]: in test [1], the activity at 10 µM stood at 212%.

For `O=S1(=O)Cc2nc(-c3cc(F)c(Cl)cc3F)nc(N3CCC(O)(CCCO)CC3)c2C1` [Example 272, 1-[2-(4-chloro-2,5-difluorophenyl)-6,6-dioidxo-5,7-dihydrothieno[3,4-d]pyrimidin-4-yl]-4-(3-hydroxypropyl)piperidin-4-ol], the “Promotion activity on insulin secretion, %” value in test [1] was determined as 322%.

With `NC(=O)CCC1CCN(c2nc(-c3cc(F)c(Cl)cc3F)nc3c2CS(=O)(=O)C3)CC1` [Example 283, 3-{1-[2-(4-chloro-2,5-difluorophenyl)-6,6-dioxido-5,7-dihydrothieno[3,4-d]pyrimidin-4-yl]piperidin-4-yl}propanamide], the activity at 10 µM in test [1] was 375%.

For `O=S1(=O)Cc2nc(-c3cc(F)c(Cl)cc3F)nc(N3CCC(NCCCO)CC3)c2C1` [Example 287, 3-({1-[2-(4-chloro-2,5-difluorophenyl)-6,6-dioxido-5,7-dihydrothieno[3,4-d]pyrimidin-4-yl]piperidin-4-yl}amino)propan-1-ol], the activity at 10 µM in test [1] was found to be 208%.

In the case of `O=C(O)CCNC1CCN(c2nc(-c3cc(F)c(Cl)cc3F)nc3c2CS(=O)(=O)C3)CC1` [Example 288, 3-({1-[2-(4-chloro-2,5-difluorophenyl)-6,6-dioxido-5,7-dihydrothieno[3,4-d]pyrimidin-4-yl]piperidin-4-yl}amino)propionic acid], the activity at 10 µM in test [1] amounted to 253%.

As to `O=C(O)CCCC1CCN(c2nc(-c3cc(F)c(Cl)cc3F)nc3c2CS(=O)(=O)C3)CC1` [Example 291, 4-{1-[2-(4-chloro-2,5-difluorophenyl)-6,6-dioxido-5,7-dihydrothieno[3,4-d]pyrimidin-4-yl]piperidin-4-yl}butyric acid], the activity at 10 µM in test [1] worked out at 269%.

On to `O=C(CO)NCC1CCN(c2nc(-c3cc(F)c(Cl)cc3F)nc3c2CS(=O)(=O)C3)CC1` [Example 331], for which, in test [1], the “Promotion activity on insulin secretion, %” value was determined as 308%.

Turning to `O=C(O)CCCC1CCN(c2nc(C3CCCC3)nc3c2CS(=O)(=O)C3)CC1` [Example 407, 4-[1-(2-cyclopentyl-6,6-dioxido-5,7-dihydrothieno[3,4-d]pyrimidin-4-yl)piperidin-4-yl]butyric acid], the activity at 10 µM in test [1] is 325%.

As to `COc1ccc(Cl)cc1C(=O)NCCc1ccc(S(=O)(=O)NC(=O)NC2CCCCC2)cc1` [Glibenclamide, glibenclamide, reference compound], the activity at 10 µM in test [1] was found to be 122%.

For `CC(C)[C@H]1CC[C@H](C(=O)N[C@H](Cc2ccccc2)C(=O)O)CC1` [Nateglinide, nateglinide], the “Hypoglycemic rate, %” value in test [2] came out at 26%.
